Measured values taken from PMC8727363, “Therapeutic Effect of Novel Cyanopyrrolidine-Based Prolyl Oligopeptidase Inhibitors in Rat Models of Amnesia” (Frontiers in Chemistry, 2021).
Values joined by “and” are separate entries in the source; they are usually repeats but may differ in a detail not shown here. Identical values can stand only once.

Experiments:
[1] = tested on: scopolamine-induced amnesia; assay: Scopolamine-induced amnesia of conditioned passive avoidance reflex (CPAR); assay type: in vivo, rat; conditions: for CPAR retention time, scopolamine-induced amnesia: doses 1 and 2 mg/kg i.p., vs scopolamine only
Description: (§1) The development of CPAR was performed on a standard passive avoidance device from Lafayette Instrument Co. (United States). The device consists of a small platform located at a distance of 1 m from the floor, illuminated by a special lamp, and a dark chamber with an electrode floor. During learning, a rat was placed on the small platform in front of the entrance to the dark chamber. Immediately after entering the dark chamber, the rat received a painful stimulation from an electric current of 0.6 mA through the electrode floor lasting 10 s or until the rat ran out of the chamber (learning). […] If the rat entered the dark chamber, the training was repeated. A test for the refiex reproduction was performed after 24 h. In this case, the rat was placed on a lighted area, and step-through latency time (STL) of its entry into the dark chamber was recorded. The observation time was 3 min. The criterion for refiex reproduction was considered to be the STL of entry into the dark box.
Experiments were performed using two rat models of amnesia. In the first model, effects of POP inhibitors on scopolamine-induced amnesia were studied. The series included eighteen groups of animals (137 rats). Rats in the negative control group (group 1, n = 8) received 2 ml of vehicle (physiological saline solution containing 1% Tween 80) i.p. 40 min before the CPAR learning. Rats in the non-treated group (group 2, n = 7) received scopolamine (1 mg/kg, i.p. in 2 ml of vehicle) 20 min before the CPAR learning. […].

[2] = target: T1, POP isolated from rat brain (Rattus norvegicus, UniProt O70196); assay: POP inhibition assay (release of AMC from Cbz-Ala-Pro-AMC); assay type: biochemical; conditions: substrate Cbz-Ala-Pro-AMC 20 μM, 30 min at 37°C, pH 7.5, read-out: IC50, POP inhibitory activity
T1 construct: the resulting POP preparation was a homogeneous monomer with molecular weight of 75 kDa; from tissue; host or cells: rat brain
T1 sequence (O70196 1-710): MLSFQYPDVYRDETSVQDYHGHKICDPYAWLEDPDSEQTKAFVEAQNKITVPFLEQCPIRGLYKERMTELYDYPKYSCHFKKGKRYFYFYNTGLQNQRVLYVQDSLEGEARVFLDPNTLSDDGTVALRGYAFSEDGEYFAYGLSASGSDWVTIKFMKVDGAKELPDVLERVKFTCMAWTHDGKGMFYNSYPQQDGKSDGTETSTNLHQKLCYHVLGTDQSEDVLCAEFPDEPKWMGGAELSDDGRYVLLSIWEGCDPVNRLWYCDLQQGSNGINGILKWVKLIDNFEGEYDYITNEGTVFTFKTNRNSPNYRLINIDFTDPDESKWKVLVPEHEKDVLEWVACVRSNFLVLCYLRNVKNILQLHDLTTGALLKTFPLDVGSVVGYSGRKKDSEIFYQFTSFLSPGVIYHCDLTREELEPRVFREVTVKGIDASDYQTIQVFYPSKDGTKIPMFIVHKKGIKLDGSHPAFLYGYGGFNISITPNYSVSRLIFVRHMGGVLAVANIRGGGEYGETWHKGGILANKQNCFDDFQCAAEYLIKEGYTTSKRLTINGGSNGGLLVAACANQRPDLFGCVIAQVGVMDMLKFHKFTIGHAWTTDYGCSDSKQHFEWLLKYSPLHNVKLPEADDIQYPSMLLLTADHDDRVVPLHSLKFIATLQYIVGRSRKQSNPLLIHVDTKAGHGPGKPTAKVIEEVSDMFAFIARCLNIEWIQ
Description: Briefly, rat brain homogenate was precipitated with ammonium sulfate, followed by ion exchange chromatography on DEAE-Sephadex A-50, gel chromatography on Sephadex G-75, and high-performance liquid chromatography on a MonoQ column using FPLC. […] Purified POP was concentrated by ultrafiltration and stored at −80°C.
The reaction was initiated by addition of the substrate (20 μM) in a final reaction volume of 2 ml. The incubation mixture consisted of 50 μl of the enzyme preparation in 20 mM Tris-HCl buffer (pH 7.5) with 1 mM EDTA, 1 mM dithiothreitol, and 0.1% NP–40; 50 μl of 1 mg/ml substrate solution in DMSO; and 1.9 ml of Tris-HCl buffer. […] After a 30-min incubation at 37°C, the reaction was stopped by addition of 1 ml of acetate buffer (pH 4.0). The AMC concentration was determined on an LS–5B spectrofluorometer (Perkin–Elmer, United States) with excitation and emission wavelengths of 380 and 460 nm, respectively.

[3] = tested on: MES-induced amnesia; assay: MES-induced amnesia of conditioned passive avoidance reflex (CPAR); assay type: in vivo; conditions: rat; for Antiamnesic activity, MES-induced amnesia, 1 and 2 mg/kg: doses of 1 and 2 mg/kg; for Potency in comparison with piracetam, MES-induced amnesia: vs piracetam 300 mg/kg; for Antiamnesic activity, MES-induced amnesia, 1 mg/kg: comparable with piracetam 300 mg/kg
Description: as §1
In the second model, effects of POP inhibitors on MES-induced amnesia were studied. The series included fifteen groups of animals (110 rats). Rats in the negative control group (group 1, n = 8) received 2 ml of vehicle (physiological saline solution containing 1% Tween 80) i.p. 30 min before the CPAR learning. Rats in the positive control group (group 2, n = 7) received MES just after CPAR learning. MES was induced using an electric shock generator from Harvard Apparatus (Holliston, MA, United States) consisting of a current (250 V, 120–122 20 mA, delivered for 0.1 s) by way of corneal electrodes. Rats of groups 3–14 received a single injection of POP inhibitor at doses of 0.5, 1, and 2 mg/kg, including BocTrpPrdN (groups 3–5, n = 7 in each), BocGlyPrdN (groups 6–8, n = 6 in each), CbzMetPrdN (groups 9–11, n = 8 in each), and CbzGlnPrdN (groups 12–14, n = 8 in each) 40 min prior to the CPAR learning (three groups of animals for each inhibitor) with following MES just after CPAR learning. Rats in group 15 (n = 8) received piracetam (300 mg/kg, i.p.) 50 min before the CPAR learning and MES just after CPAR learning.

[4] = tested on: dipeptidyl peptidase IV (DPP-4); design: method as in Ivanova et al., 2020; conditions: ref Ivanova et al., 2020; cited from earlier work
[5] = target: T2, POP (Rattus norvegicus, UniProt O70196); assay: POP activity in brain tissue homogenate after single i.p. administration; assay type: in vivo
T2 construct: from tissue; host or cells: brain homogenate of rats dosed i.p. with CbzMetPrdN
T2 sequence (O70196 1-710): T1 sequence (O70196 1-710)
Description: (§2) The total drug concentrations for CbzMetPrdN and POP activity in the brain were determined as a function of time at 0, 20, 40, 60, 80, and 120 min (n = 3 for each time-point) after a single 20 mg/kg intraperitoneal (i.p.) administration of CbzMetPrdN. The test animals were sacrificed, and their brains were harvested and immediately homogenized in phosphate buffer saline.
POP activity in the brain tissue homogenate was measured using Cbz-Ala-Pro-AMC, as described above, and is presented as nmole AMC released/min/mg of brain protein. Protein concentrations of the supernatants were determined with a Bio-Rad protein assay kit.

[6] = tested on: MPTP-induced Parkinsonian syndrome; design: method as in earlier work; conditions: ref Khlebnikova et al., 2009b, Krupina et al., Khlebnikova et al., 2012, 2013a, 2013b, Kalinina et al., 2019; cited from earlier work
[7] = Tissue concentration of CbzMetPrdN in the brain after single i.p. administration; assay type: in vivo; conditions: single i.p. 20 mg/kg
Description: as §2
For measurement of the brain tissue concentration of CbzMetPrdN, the homogenate was mixed with an equal volume of methanol and centrifuged at 3,000 g for 10 min. The supernatant was concentrated to 2 ml, followed by solid phase extraction in a Retain AX SPE cartridge (Thermo Fisher Scientific). The cartridge was washed with 1 ml of 5% ammonia solution and then with 1 ml of methanol. The sample was eluted with 1 ml of 2% trifluoroacetic acid in methanol and analyzed using a Gilson 41 HPLC system (Gilson, United Kingdom) with a 125 × 4 mm Nucleosil C18 column (Macherey-Nagel). The column was washed for 3 min with 4 mM hexanesulfonate in water (pH 3.5), followed by a 0–100% gradient of 4 mM hexanesulfonate in acetonitrile:water (50:50) % (v/v) over 10 min. The concentration of the POP inhibitor is expressed in ng of CbzMetPrdN per mg of brain protein.

[8] = design: method as in Jalkanen et al., 2011a; Jalkanen et al., 2014; conditions: mouse and rat, ref Jalkanen et al., 2011a, 2014; cited from earlier work

CC(C)(C)OC(=O)NCC(=O)N1CCC[C@H]1C#N [BocGlyPrdN, N-(tert-butoxycarbonyl)glycyl-(2S)-pyrrolidine-2-carbonitrile]
CPAR retention time, scopolamine-induced amnesia ([1]; rat, scopolamine 1 mg/kg): significantly prolonged CPAR retention time | IC50 [2]: 12 ± 3 nM | Antiamnesic activity, MES-induced amnesia, 1 and 2 mg/kg [3]: exhibited antiamnesic activity | Potency in comparison with piracetam, MES-induced amnesia [3]: less potent

CC(C)(C)OC(=O)N[C@@H](Cc1c[nH]c2ccccc12)C(=O)N1CCC[C@H]1C#N [BocTrpPrdN, N-(tert-butoxycarbonyl)-L-tryptophanyl-(2S)-pyrrolidine-2-carbonitrile]
Antiamnesic activity, scopolamine-induced amnesia (overall) ([1]; rat, 0.5-2 mg/kg i.p., scopolamine 1 mg/kg): clear tendency toward antiamnesic activity | IC50 [2]: 9 ± 0.9 nM | Antiamnesic activity, MES-induced amnesia, 1 and 2 mg/kg [3]: exhibited antiamnesic activity | Potency in comparison with piracetam, MES-induced amnesia [3]: less potent

C[C@H](NC(=O)OCc1ccccc1)C(=O)N1CCC[C@H]1C#N [CbzAlaPrdN, N-benzoxycarbonyl-L-alanyl-(2S)-pyrrolidine-2-carbonitrile]
Antiamnesic effect, scopolamine-induced amnesia, all doses ([1]; rat, 0.5, 1 and 2 mg/kg i.p., scopolamine 1 mg/kg): not effective

N#C[C@@H]1CCCN1C(=O)[C@H](CCC(N)=O)NC(=O)OCc1ccccc1 [CbzGlnPrdN, N-Benzyloxycarbonyl-L-glutaminyl-(2S)-pyrrolidine-2-carbonitrile]
CPAR retention time, scopolamine-induced amnesia ([1]; rat, scopolamine 1 mg/kg): significantly prolonged CPAR retention time | IC50 [2]: ~2 nM and 2 nM | Antiamnesic activity, MES-induced amnesia, 1 mg/kg [3]: potent antiamnesic activity

CSCC[C@H](NC(=O)OCc1ccccc1)C(=O)N1CCC[C@H]1C#N [CbzMetPrdN, N-Benzyloxycarbonyl-L-methionyl-(2S)-pyrrolidine-2-carbonitrile]
CPAR retention time, scopolamine-induced amnesia ([1]; rat, scopolamine 1 mg/kg): significantly prolonged CPAR retention time | IC50 [2]: 2.1 ± 0.6 nM | Inhibition of DPP-4 activity [4]: inhibited activity | Inhibition of POP in the brain ([5]; administered intraperitoneally): effectively inhibits POP in the brain | Time of maximal inhibition of brain POP activity ([5]; single i.p. 20 mg/kg): 60 min | Effect in preclinical model of Parkinsonian syndrome (MPTP) [6]: exhibited neuroprotective activity and abolished depressive symptoms | Time point with maximal concentration in the brain ([7]; rat): 60 min | Accumulation in rat brain tissue ([7]; 0-120 min): accumulated in the brain | Antiamnesic activity, MES-induced amnesia, 1 mg/kg [3]: potent antiamnesic activity

N#C[C@@H]1CCCN1C(=O)[C@@H]1CCCN1C(=O)CCCc1ccccc1 [KYP-2047, (2S)-1-[[(2S)-1-(1-oxo-4-phenylbutyl)-2-pyrrolidinyl]carbonyl]-2-pyrrolidinecarbonitrile]
Brain penetration [8]: penetrates mouse and rat brains

CN1[C@@H]2C[C@@H](OC(=O)[C@H](CO)c3ccccc3)C[C@H]1[C@@H]1O[C@@H]12 [scopolamine, reference compound]
Latency period (STL) in CPAR test ([1]; rat, scopolamine 1 mg/kg i.p. 20 min before learning, vehicle-treated rats 145.0 ± 21.7 s): 23.5 ± 9.6 s
